Molecular target: T1, 5-HT1A (Homo sapiens, UniProt P08908)
T1 construct: expressed in transfected cells; host or cells: HEK-293 cells
T1 sequence (P08908 1-422): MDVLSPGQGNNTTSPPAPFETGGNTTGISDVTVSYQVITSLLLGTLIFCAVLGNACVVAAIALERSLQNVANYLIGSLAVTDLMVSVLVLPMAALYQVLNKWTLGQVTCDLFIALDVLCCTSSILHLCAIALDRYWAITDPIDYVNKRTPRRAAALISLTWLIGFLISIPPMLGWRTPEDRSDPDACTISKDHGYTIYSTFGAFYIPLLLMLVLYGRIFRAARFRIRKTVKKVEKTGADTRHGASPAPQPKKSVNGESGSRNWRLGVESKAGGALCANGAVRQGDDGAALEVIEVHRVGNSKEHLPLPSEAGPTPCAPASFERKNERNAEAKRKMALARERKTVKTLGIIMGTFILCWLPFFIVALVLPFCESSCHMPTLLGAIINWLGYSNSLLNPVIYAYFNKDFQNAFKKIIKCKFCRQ
Assay: In vitro radioligand binding assay, 5-HT1A, [3H]8-OH-DPAT
Parameters: concentration or dose not given beside the values
Details: human recombinant (HEK-293 cells)
Description: Certain compounds were tested by in vitro binding assays using standard procedures. […] These receptors and assays are well known to those skilled in the art, as exemplified by the following: Abramovitz, M. et al. (2000), Biochem. Biophys. Acta., 1483: 285-293 (EP4, IP (PGI2)); Aharony, D. et al. (1993), Mol. Pharmacol., 44: 356-363 (NK2); Ardati, A. et al. (1997), Mol. Pharmacol., 51: 816-824 (NOP (ORL1)); Bignon, E. et al. (1999), J. Pharmacol. Exp. Ther. 289: 742-751 (CCK1 (CCKA)); Bloomquist, B. T. et al. (1998), Biochem. Biophys. Res. Commun., 243: 474-479 (GAL2); Brockhaus, M. et al. (1990), Proc. Natl. Acad. Sci. U.S.A., 87: 3127-3131 (TNF-α); Brown, G. B. (1986), J. Neurosci., 6: 2064-2070 (Na+ channel (site 2)); Buchan, K. W. et al. (1994), Brit. J. Pharmacol., 112: 1251-1257 (ETA); Cesura, A. M. et al. (1990), Mol. Pharmacol., 37: 358-366 (MAO-A); Choi, D. S. et al. (1994), FEBS Lett., 352: 393-399 (5-HT2B); Clark, A. F. et al. (1996), Invest. Ophtalmol. Vis. Sci., 37: 805-813 (GR); Couvineau, A. et al. (1985), Biochem. J., 231: 139-143 (VPAC1 (VIP1)); Dorje, F. et al. (1991), J. Pharmacol. Exp. Ther., 256: 727-733 (M1, M2, M3, M4); Ferry, G. et al. (2001), Eur. J. Pharmacol., 417: 77-89 (PPARγ); Fuchs, S. et al. (2001), Mol. Med., 7: 115-124 (ETB); Fuhlendorff, J. et al. (1990), Proc. Natl. Acad. Sci. U.S.A., 87: 182-186 (Y2); Ganapathy M E. et al. (1999), J. Pharmacol. Exp. Ther., 289: 251-260 (sigma (non-selective)); Gopalakrishnan, M. et al. (1996), J. Pharmacol. Exp. Ther., 276: 289-297 (N neuronal α4β2); Greengrass, P. and Bremner, R. (1979), Eur. J. Pharmacol., 55: 323-326 (α1 (non-selective)); Grandy, D. K. et al. (1989), Proc. Natl. Acad. Sci. U.S.A., 86: 9762-9766 (D25); Guard, S. et al. (1993), Eur. J. Pharmacol., 240:177-184 (BB (non-selective)); Heuillet, E. et al. (1993), J. Neurochem., 60: 868-876 (NK1, P2X); Hope, A. G. et al. (1996), Brit. J. Pharmacol., 118: 1237-1245 (5-HT3); Hoyer, D. et al. (1985), Eur. J. Pharmacol., 118: 1-12 (5-HT1B); Hugues, M. et al. (1982), J. Biol. Chem., 257: 2762-2769 (5-HT2A, SKCa channel); Joseph, S. S. et al. (2004), Naun.-Sch. Arch. Pharm., 369: 525-532 (β2); Le, M. T. et al. (2005), Eur. J. Pharmacol., 513: 35-45 (AT1); Le Fur, G. et al. (1983), Life Sci., 33: 449-457) (BZD (peripheral); Lee, Y. M. et al. (1993), J. Biol. Chem., 268: 8164-8169 (CCK2 (CCKB)); Leurs, R. et al. (1994), Brit. J. Pharmacol., 112: 847-854 (H2); Levin, M. C. et al. (2002), J. Biol. Chem., 277: 30429-30435 (11); Lewin, A. H. et al. (1989), Mol. Pharmacol., 35: 189-194 (Cl− channel (GABA-gated)); Lukas, R. J. (1986), J. Neurochem., 46: 1936-1941 (N muscle-type); Luthin, D. R. et al. (1995), Mol. Pharmacol., 47: 307-313; (A2A); Mackenzie, R. G. et al. (1994), Eur. J. Pharmacol., 266: 79-85 (D3); Mulheron, J. G. et al. (1994), J. Biol. Chem., 269: 12954-12962 (5-HT1A); Meng, F. et al. (1993), Proc. Natl. Acad. Sci. U.S.A., 90: 9954-9958 (κ (KOP)); Monsma, F. J. et al. (1993), Mol. Pharmacol., 43: 320-327 (5-HT6); Neote, K. et al. (1993), Cell, 72: 415-425 (CCR1); Pacholczyk, T. et al. (1991), Nature, 350: 350-354 (sst (non-selective, norepinephrine transporter)); Peralta, E. G. et al. (1987), Embo. J., 6: 3923-3929 (M3); Pristupa, Z. B. et al. (1994), Mol. Pharmacol., 45: 125-135 (dopamine transporter); Pruneau, D. et al. (1998), Brit. J. Pharmacol., 125: 365-372 (B2); Rees, S. et al. (1994), FEBS Lett., 355: 242-246 (5-HT5a); Reynolds, I. J. et al. (1986), J. Pharmacol. Exp. Ther., 237: 731-738 (Ca2+ channel (L, verapamil site)); Rinaldi-Carmona, M. et al. (1996), J. Pharmacol. Exp. Ther., 278: 871-878 (CB1); Salvatore, C. A. et al. (1993), Proc. Natl. Acad. Sci. U.S.A., 90: 10365-10369 (A3); Sarau, H. M. et al. (1997), J. Pharmacol. Exp. Ther., 281: 1303-1311 (NK3); Schioth, H. B. et al. (1997), Neuropeptides, 31: 565-571 (MC4); Sharples, C. […]

Compound | 5HT1a percent inhibition of specific binding [%]
Clc1ccc2c(c1)[C@H]([C@@H]1CCCN1)OCC2 [Compound I-29, (S)-2-((R)-7-chloroisochroman-1-yl)pyrrolidine] | 71
Fc1ccc2c(c1)CCO[C@H]2[C@@H]1CCN1 [Compound I-90, (S)-2-((R)-6-fluoroisochroman-1-yl)azetidine] | 64
Fc1ccc2c(c1)[C@H]([C@@H]1CCCN1)OCC2 [Compound I-5, (2S)-2-((R)-7-fluoroisochroman-1-yl)pyrrolidine] | 52
Fc1cccc2c1[C@H]([C@@H]1CCN1)OCC2 [Compound I-83, (S)-2-((R)-8-fluoroisochroman-1-yl)azetidine] | 87
Fc1cccc2c1[C@H]([C@@H]1CCCN1)OCC2 [Compound I-1, (S)-2-((R)-8-fluoroisochroman-1-yl)pyrrolidine] | 79
Fc1ccc2c(c1)CCO[C@H]2[C@@H]1CCCN1 [Compound I-9, (S)-2-((R)-6-fluoroisochroman-1-yl)pyrrolidine] | 77
